This note sets out measurements from patent publication US11945801B2, “Bicyclic aza compounds as muscarinic M1 and/or M4 receptor agonists” (Heptares Therapeutics Limited, priority 2018, dated 2024).

Each structure is given as a SMILES string. Where two headings read alike, the source gives them in different places. Bounds are passed on as bounds.

What all share (format): cell-based
Assay [1] has as its target T1, human muscarinic M2 receptor (Homo sapiens, UniProt P08172).
T1 sequence (P08172 1-466): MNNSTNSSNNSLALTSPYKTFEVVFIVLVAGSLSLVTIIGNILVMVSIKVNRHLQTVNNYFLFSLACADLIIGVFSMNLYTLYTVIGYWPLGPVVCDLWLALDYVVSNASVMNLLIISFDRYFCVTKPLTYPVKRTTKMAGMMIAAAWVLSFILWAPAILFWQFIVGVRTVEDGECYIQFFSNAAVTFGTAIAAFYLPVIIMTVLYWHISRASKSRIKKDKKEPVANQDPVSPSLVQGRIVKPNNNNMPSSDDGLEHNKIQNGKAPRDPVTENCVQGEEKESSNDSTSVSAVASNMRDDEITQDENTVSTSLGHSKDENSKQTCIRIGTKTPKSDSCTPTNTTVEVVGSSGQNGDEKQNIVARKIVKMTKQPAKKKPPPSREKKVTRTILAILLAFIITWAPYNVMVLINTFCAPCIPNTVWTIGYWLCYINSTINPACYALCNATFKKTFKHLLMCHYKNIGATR
The experiment in a line: Alphascreen Surefire phospho-ERK1/2 functional assay, M2. To be noted: for EC50: CHO cells stably expressing human M2, agonist 5 min, 37° C., read-out: pEC50 M2 (converted); for Emax: CHO. The procedure: (§1) ERK1/2 phosphorylation is a downstream consequence of both Gq/11 and Gi/o protein coupled receptor activation, making it highly suitable for the assessment of M1, M3 (Gq/11 coupled) and M2, M4 receptors (Gi/o coupled), rather than using different assay formats for different receptor subtypes. CHO cells stably expressing the human muscarinic M1, M2, M3 or M4 receptor were plated (25K/well) onto 96-well tissue culture plates in MEM-alpha+10% dialysed FBS. Once adhered, cells were serum-starved overnight. Agonist stimulation was performed by the addition of 5 μL agonist to the cells for 5 min (37° C.). Media was removed and 50 μL of lysis buffer added. After […], a 4 μL sample was transferred to 384-well plate and 7 μL of detection mixture added.
(§2) Isomer assignment (Isomer 1, Isomer 2, etc.) is based on the retention time of the compound using the separation technique that was performed in the final purification step. By implication, this could be reversed phase HPLC, chiral HPLC or chiral SFC retention time, and this will vary from compound to compound.

Assay [2] concerns the target T2, human muscarinic M3 receptor (Homo sapiens, UniProt P20309).
T2 construct: expressed in transfected cells
The experiment in a line: Alphascreen Surefire phospho-ERK1/2 functional assay, M3. To be noted: for EC50: CHO cells stably expressing human M3, agonist 5 min, 37° C., read-out: pEC50 M3 (converted); for Emax: CHO. The procedure:
as §1, §2

Assay [3] deals with T3, human muscarinic M1 receptor (Homo sapiens, UniProt P11229).
T3 sequence (P11229 1-460): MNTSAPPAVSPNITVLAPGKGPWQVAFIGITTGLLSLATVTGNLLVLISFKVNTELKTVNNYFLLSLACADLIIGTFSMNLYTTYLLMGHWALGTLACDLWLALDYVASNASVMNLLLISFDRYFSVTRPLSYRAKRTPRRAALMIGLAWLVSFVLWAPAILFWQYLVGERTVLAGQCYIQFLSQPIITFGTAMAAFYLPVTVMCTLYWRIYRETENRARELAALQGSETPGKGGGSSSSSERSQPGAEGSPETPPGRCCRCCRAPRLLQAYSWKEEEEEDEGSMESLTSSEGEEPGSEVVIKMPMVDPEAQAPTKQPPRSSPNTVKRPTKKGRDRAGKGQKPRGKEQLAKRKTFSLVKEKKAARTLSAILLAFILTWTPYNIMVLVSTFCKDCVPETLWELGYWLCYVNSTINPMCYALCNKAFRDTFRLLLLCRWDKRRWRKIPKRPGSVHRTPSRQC
The experiment in a line: Alphascreen Surefire phospho-ERK1/2 functional assay, M1. To be noted: for EC50: agonist 5 min, 37° C., read-out: pEC50 M1 (converted); for Emax: CHO. The procedure:
as §1, §2

The target of assay [4] is T4, human muscarinic M4 receptor (Homo sapiens, UniProt P08173).
T4 construct: expressed in transfected cells
T4 sequence (P08173 1-479): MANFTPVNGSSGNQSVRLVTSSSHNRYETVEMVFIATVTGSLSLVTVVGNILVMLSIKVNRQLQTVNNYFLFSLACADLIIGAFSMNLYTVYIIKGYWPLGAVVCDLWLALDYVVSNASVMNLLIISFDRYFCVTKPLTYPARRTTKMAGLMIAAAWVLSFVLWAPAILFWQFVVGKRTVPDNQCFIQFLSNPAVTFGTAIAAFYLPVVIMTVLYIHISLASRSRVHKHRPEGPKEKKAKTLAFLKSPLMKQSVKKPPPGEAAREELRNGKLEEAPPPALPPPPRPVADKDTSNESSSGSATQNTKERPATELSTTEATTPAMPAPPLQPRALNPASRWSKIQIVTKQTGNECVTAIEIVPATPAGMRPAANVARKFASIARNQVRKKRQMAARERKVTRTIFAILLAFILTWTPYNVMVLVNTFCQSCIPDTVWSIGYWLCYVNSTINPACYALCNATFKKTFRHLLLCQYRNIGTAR
Description: Alphascreen Surefire phospho-ERK1/2 functional assay, M4. To be noted: for EC50: CHO cells stably expressing human M4, agonist 5 min, 37° C., read-out: pEC50 M4 (converted); for Emax: CHO. The method, then:
as §1, §2
On the technique in general: Bead proximity is the source of the signal in Alpha formats.

The mark [5] stands for this setting: read-out: % Emax cf. ACh, M2, CHO cells stably expressing human M2, Emax relative to ACh.
Where [6] appears, read: read-out: % Emax cf. ACh, M3, CHO cells stably expressing human M3, Emax relative to ACh.
Where [7] appears, read: CHO cells stably expressing human M1.
Setting [8] is: read-out: % Emax cf. ACh, M1, CHO cells stably expressing human M1, Emax relative to ACh.
The mark [9] stands for this setting: read-out: % Emax cf. ACh, M4, CHO cells stably expressing human M4, Emax relative to ACh.

Usually Emax stands for the greatest response seen or fitted, relative to the assay's reference.

T2 sequence (P20309 whole entry): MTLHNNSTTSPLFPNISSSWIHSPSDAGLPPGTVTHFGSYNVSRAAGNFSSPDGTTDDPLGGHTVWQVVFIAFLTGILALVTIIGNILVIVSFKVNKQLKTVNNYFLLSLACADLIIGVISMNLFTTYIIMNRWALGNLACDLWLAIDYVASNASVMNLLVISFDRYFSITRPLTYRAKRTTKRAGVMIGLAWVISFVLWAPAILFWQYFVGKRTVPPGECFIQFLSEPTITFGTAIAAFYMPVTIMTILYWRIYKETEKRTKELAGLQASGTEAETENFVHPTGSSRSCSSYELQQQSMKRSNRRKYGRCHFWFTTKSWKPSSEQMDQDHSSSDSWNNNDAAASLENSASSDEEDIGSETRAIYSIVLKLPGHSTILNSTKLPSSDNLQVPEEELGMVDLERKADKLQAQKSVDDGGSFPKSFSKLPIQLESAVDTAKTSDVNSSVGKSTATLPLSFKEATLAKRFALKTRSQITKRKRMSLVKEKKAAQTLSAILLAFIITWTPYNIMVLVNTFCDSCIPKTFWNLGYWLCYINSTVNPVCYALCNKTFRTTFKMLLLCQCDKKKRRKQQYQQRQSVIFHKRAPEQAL

Take `CCOC(=O)N1CC2CCC1CC2N1CC(CC(=O)N2CCC23CCC3)C1` (single isomer, unassigned) [Example 2-5 Isomer 1, Ethyl-5-(3-(2-oxo-2-(1-azaspiro[3.3]heptan-1-yl)ethyl)azetidin-1-yl)-2-azabicyclo[2.2.2]octane-2-carboxylate]: the EC50 in assay [1] is over 20 µM; in assay [2] it was over 20 µM; in assay [3] (setting [7]), 0.11 µM; in assay [4], over 20 µM. Further, the Emax was found to be 53% in assay [1] (setting [5]), 35% in assay [2] (setting [6]), 64% in assay [3] (setting [8]) and 23% in assay [4] (setting [9]).

As for `CCOC(=O)N1CCC2(CC(N3CC(OC(=O)N(CC)CC)C3)C2)C1` (single isomer, unassigned) [Example 4-2 Isomer 2, Ethyl 2-(3-((diethylcarbamoyl)oxy)azetidin-1-yl)-6-azaspiro[3.4]octane-6-carboxylate], the EC50 in assay [1] was over 20 µM; in assay [2] it was over 20 µM; in assay [3] (setting [7]) it was 0.158 µM; in assay [4] it was 0.282 µM. In addition, the Emax in assay [1] (setting [5]) amounted to 14%; in assay [2] (setting [6]), 17%; in assay [3] (setting [8]) it was 105%; in assay [4] (setting [9]), 89%.

For `CCOC(=O)N1C2CCC1CC(N1CC(CC(=O)N(CC)CC)C1)C2` (single isomer, unassigned) [Example 1-1 Isomer 2, Ethyl-3-(3-(2-(diethylamino)-2-oxoethyl)azetidin-1-yl)-8-azabicyclo[3.2.1]octane-8-carboxylate], the EC50 was 1.26 µM in assay [1], over 20 µM in assay [2], 0.316 µM in assay [3] (setting [7]) and 0.2 µM in assay [4]. Also, the Emax worked out at 58% in assay [1] (read-out: % Emax cf. ACh, M2); 28% in assay [2] (read-out: % Emax cf. ACh, M3); 100% in assay [3] (read-out: % Emax cf. ACh, M1); 85% in assay [4] (read-out: % Emax cf. ACh, M4).

Consider `CCOC(=O)N1CC2CCC1CC2N1CC(CC(=O)N2CCCCC2)C1` (single isomer, unassigned) [Example 2-3 Isomer 1, Ethyl-5-(3-(2-oxo-2-(piperidin-1-yl)ethyl)azetidin-1-yl)-2-azabicyclo[2.2.2]octane-2-carboxylate], for which the EC50 is over 20 µM in assay [1], over 20 µM in assay [2], 0.204 µM in assay [3] (setting [7]) and 6.46 µM in assay [4]. Besides, the Emax in assay [1] (setting [5]) came to 10%; in assay [2] (setting [6]) it was 9%; in assay [3] (setting [8]), 88%; in assay [4] (setting [9]) it was 46%.

For `CCOC(=O)N1CC2CCC1CC2N1CC(CC(=O)N(CC)CC)C1` (single isomer, unassigned) [Example 2-1 Isomer 1, Ethyl-5-(3-(2-(diethylamino)-2-oxoethyl)azetidin-1-yl)-2-azabicyclo[2.2.2]octane-2-carboxylate], the EC50 in assay [1] was over 20 µM; in assay [2], over 20 µM; in assay [3] (setting [7]), 0.209 µM; in assay [4] it was over 20 µM. Moreover, the Emax turned out to be 13% in assay [1] (setting [5]), 6% in assay [2] (setting [6]), 67% in assay [3] (setting [8]) and 9% in assay [4] (setting [9]).

On to `CCOC(=O)N1CC2CCC1CC2N1CC(CC(=O)N(CC)C(C)C)C1` (single isomer, unassigned) [Example 2-2 Isomer 1, Ethyl-5-(3-(2-(ethyl(isopropyl)amino)-2-oxoethyl)azetidin-1-yl)-2-azabicyclo[2.2.2]octane-2-carboxylate], for which the EC50 is over 20 µM in assay [1], over 20 µM in assay [2], 0.0191 µM in assay [3] (setting [7]) and 0.257 µM in assay [4]. Besides, the results for the Emax in assay [1] (setting [5]), in assay [2] (setting [6]) and in assay [4] (setting [9]) were 8%, 12% and 36%, respectively. In addition, the “% Emax cf. ACh, M1” value in assay [3] (CHO cells stably expressing human M1, Emax relative to ACh, listed as 2-2 Isomer 1) was 95%.

With `CCOC(=O)N1C2CCC1CC(N1CC(CC(=O)N3CCCCC3)C1)C2` (mixture of isomers) [Example 1-4 Isomer mixture, Ethyl-3-(3-(2-oxo-2-(piperidin-1-yl)ethyl)azetidin-1-yl)-8-azabicyclo[3.2.1]octane-8-carboxylate], the EC50 in assay [1] was over 20 µM; in assay [2], over 20 µM; in assay [3] (setting [7]), 0.309 µM; in assay [4], over 20 µM. The Emax stood at 21% in assay [1] (read-out: % Emax cf. ACh, M2); 6% in assay [2] (read-out: % Emax cf. ACh, M3); 84% in assay [3] (read-out: % Emax cf. ACh, M1); 17% in assay [4] (read-out: % Emax cf. ACh, M4).
